# Data from PubChem BioAssay (NCI).
#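 Abbreviation: GI50, concentration required for 50% inhibition of growth. At the TGI there is no net growth.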
# Columns and labels:
# Assay in all cases: inhibition of tumour cell growth, NCI panel, 384-well format
# 786-0 renal = system: 786-0 renal
# A498 renal = system: A498 renal
# A549 NSCLC = system: A549 NSCLC
# ACHN renal = system: ACHN renal
# BT-549 breast = system: BT-549 breast
# CAKI-1 renal = system: CAKI-1 renal
# CCRF-CEM leukemia = system: CCRF-CEM leukemia
# COLO 205 colon = system: COLO 205 colon
# DU-145 prostate = system: DU-145 prostate
# EKVX NSCLC = system: EKVX NSCLC
# HCT-116 colon = system: HCT-116 colon
# HCT-15 colon = system: HCT-15 colon
# HL-60(TB) leukemia = system: HL-60(TB) leukemia
# HOP-62 NSCLC = system: HOP-62 NSCLC
# HOP-92 NSCLC = system: HOP-92 NSCLC
# HS 578T breast = system: HS 578T breast
# HT29 colon = system: HT29 colon
# IGROV1 ovarian = system: IGROV1 ovarian
# K-562 leukemia = system: K-562 leukemia
# KM12 colon = system: KM12 colon
# LOX IMVI melanoma = system: LOX IMVI melanoma
# M14 melanoma = system: M14 melanoma
# MALME-3M melanoma = system: MALME-3M melanoma
# MCF7 breast = system: MCF7 breast
# MDA-MB-231 breast = system: MDA-MB-231 breast
# MDA-MB-435 melanoma = system: MDA-MB-435 melanoma
# MDA-MB-468 breast = system: MDA-MB-468 breast
# MOLT-4 leukemia = system: MOLT-4 leukemia
# NCI-H226 lung = system: NCI-H226 lung
# NCI-H23 lung = system: NCI-H23 lung
# NCI-H322M lung = system: NCI-H322M lung
# NCI-H460 NSCLC = system: NCI-H460 NSCLC
# NCI-H522 lung = system: NCI-H522 lung
# NCI/ADR-RES ovarian = system: NCI/ADR-RES ovarian
# OVCAR-3 ovarian = system: OVCAR-3 ovarian
# OVCAR-4 ovarian = system: OVCAR-4 ovarian
# OVCAR-5 ovarian = system: OVCAR-5 ovarian
# PC-3 prostate = system: PC-3 prostate
# RPMI-8226 leukemia = system: RPMI-8226 leukemia
# RXF 393 renal = system: RXF 393 renal
# SF-268 CNS = system: SF-268 CNS
# SF-295 CNS = system: SF-295 CNS
# SF-539 CNS = system: SF-539 CNS
# SK-MEL-2 melanoma = system: SK-MEL-2 melanoma
# SK-MEL-28 melanoma = system: SK-MEL-28 melanoma
# SK-MEL-5 melanoma = system: SK-MEL-5 melanoma
# SK-OV-3 ovarian = system: SK-OV-3 ovarian
# SN12C renal = system: SN12C renal
# SNB-19 CNS = system: SNB-19 CNS
# SNB-75 CNS = system: SNB-75 CNS
# SR leukemia = system: SR leukemia
# SW-620 colon = system: SW-620 colon
# T-47D breast = system: T-47D breast
# TK-10 renal = system: TK-10 renal
# U251 glioblastoma = system: U251 glioblastoma
# UACC-257 melanoma = system: UACC-257 melanoma
# UACC-62 melanoma = system: UACC-62 melanoma
# UO-31 renal = system: UO-31 renal
structure (smiles),measurement,setting,value
Cn1cc(-c2ccc3nnc(Sc4ccc5ncccc5c4)n3n2)cn1,GI50,786-0 renal,> 100 µM
same,TGI,786-0 renal,> 100 µM
same,GI50,A498 renal,> 100 µM
same,TGI,A498 renal,> 100 µM
same,GI50,A549 NSCLC,> 100 µM
same,TGI,A549 NSCLC,> 100 µM
same,GI50,ACHN renal,> 100 µM
same,TGI,ACHN renal,> 100 µM
same,GI50,BT-549 breast,> 100 µM
same,TGI,BT-549 breast,> 100 µM
same,GI50,CAKI-1 renal,> 100 µM
same,TGI,CAKI-1 renal,> 100 µM
same,GI50,CCRF-CEM leukemia,> 100 µM
same,TGI,CCRF-CEM leukemia,> 100 µM
same,GI50,COLO 205 colon,> 100 µM
same,TGI,COLO 205 colon,> 100 µM
same,GI50,DU-145 prostate,> 100 µM
same,TGI,DU-145 prostate,> 100 µM
same,GI50,EKVX NSCLC,> 100 µM
same,TGI,EKVX NSCLC,> 100 µM
same,GI50,HCT-116 colon,> 100 µM
same,TGI,HCT-116 colon,> 100 µM
same,GI50,HCT-15 colon,> 100 µM
same,TGI,HCT-15 colon,> 100 µM
same,GI50,HL-60(TB) leukemia,> 100 µM
same,TGI,HL-60(TB) leukemia,> 100 µM
same,GI50,HOP-62 NSCLC,> 100 µM
same,TGI,HOP-62 NSCLC,> 100 µM
same,GI50,HOP-92 NSCLC,> 100 µM
same,TGI,HOP-92 NSCLC,> 100 µM
same,GI50,HS 578T breast,61.6 µM
same,TGI,HS 578T breast,> 100 µM
same,GI50,HT29 colon,> 100 µM
same,TGI,HT29 colon,> 100 µM
same,GI50,IGROV1 ovarian,> 100 µM
same,TGI,IGROV1 ovarian,> 100 µM
same,GI50,K-562 leukemia,> 100 µM
same,TGI,K-562 leukemia,> 100 µM
same,GI50,KM12 colon,> 100 µM
same,TGI,KM12 colon,> 100 µM
same,GI50,LOX IMVI melanoma,> 100 µM
same,TGI,LOX IMVI melanoma,> 100 µM
same,GI50,M14 melanoma,> 100 µM
same,TGI,M14 melanoma,> 100 µM
same,GI50,MALME-3M melanoma,> 100 µM
same,TGI,MALME-3M melanoma,> 100 µM
same,GI50,MCF7 breast,> 100 µM
same,TGI,MCF7 breast,> 100 µM
same,GI50,MDA-MB-231 breast,> 100 µM
same,TGI,MDA-MB-231 breast,> 100 µM
same,GI50,MDA-MB-435 melanoma,> 100 µM
same,TGI,MDA-MB-435 melanoma,> 100 µM
same,GI50,MDA-MB-468 breast,13.8 µM
same,TGI,MDA-MB-468 breast,48.4 µM
same,GI50,MOLT-4 leukemia,> 100 µM
same,TGI,MOLT-4 leukemia,> 100 µM
same,GI50,NCI-H226 lung,> 100 µM
same,TGI,NCI-H226 lung,> 100 µM
same,GI50,NCI-H23 lung,> 100 µM
same,TGI,NCI-H23 lung,> 100 µM
same,GI50,NCI-H322M lung,> 100 µM
same,TGI,NCI-H322M lung,> 100 µM
same,GI50,NCI-H460 NSCLC,> 100 µM
same,TGI,NCI-H460 NSCLC,> 100 µM
same,GI50,NCI-H522 lung,> 100 µM
same,TGI,NCI-H522 lung,> 100 µM
same,GI50,NCI/ADR-RES ovarian,> 100 µM
same,TGI,NCI/ADR-RES ovarian,> 100 µM
same,GI50,OVCAR-3 ovarian,> 100 µM
same,TGI,OVCAR-3 ovarian,> 100 µM
same,GI50,OVCAR-4 ovarian,> 100 µM
same,TGI,OVCAR-4 ovarian,> 100 µM
same,GI50,OVCAR-5 ovarian,> 100 µM
same,TGI,OVCAR-5 ovarian,> 100 µM
same,GI50,PC-3 prostate,> 100 µM
same,TGI,PC-3 prostate,> 100 µM
same,GI50,RPMI-8226 leukemia,> 100 µM
same,TGI,RPMI-8226 leukemia,> 100 µM
same,GI50,RXF 393 renal,38.2 µM
same,TGI,RXF 393 renal,> 100 µM
same,GI50,SF-268 CNS,> 100 µM
same,TGI,SF-268 CNS,> 100 µM
same,GI50,SF-295 CNS,46.3 µM
same,TGI,SF-295 CNS,> 100 µM
same,GI50,SF-539 CNS,> 100 µM
same,TGI,SF-539 CNS,> 100 µM
same,GI50,SK-MEL-2 melanoma,> 100 µM
same,TGI,SK-MEL-2 melanoma,> 100 µM
same,GI50,SK-MEL-28 melanoma,> 100 µM
same,TGI,SK-MEL-28 melanoma,> 100 µM
same,GI50,SK-MEL-5 melanoma,> 100 µM
same,TGI,SK-MEL-5 melanoma,> 100 µM
same,GI50,SK-OV-3 ovarian,> 100 µM
same,TGI,SK-OV-3 ovarian,> 100 µM
same,GI50,SN12C renal,> 100 µM
same,TGI,SN12C renal,> 100 µM
same,GI50,SNB-19 CNS,> 100 µM
same,TGI,SNB-19 CNS,> 100 µM
same,GI50,SNB-75 CNS,> 100 µM
same,TGI,SNB-75 CNS,> 100 µM
same,GI50,SR leukemia,27.2 µM
same,TGI,SR leukemia,> 100 µM
same,GI50,SW-620 colon,> 100 µM
same,TGI,SW-620 colon,> 100 µM
same,GI50,T-47D breast,> 100 µM
same,TGI,T-47D breast,> 100 µM
same,GI50,TK-10 renal,> 100 µM
same,TGI,TK-10 renal,> 100 µM
same,GI50,U251 glioblastoma,> 100 µM
same,TGI,U251 glioblastoma,> 100 µM
same,GI50,UACC-257 melanoma,> 100 µM
same,TGI,UACC-257 melanoma,> 100 µM
same,GI50,UACC-62 melanoma,> 100 µM
same,TGI,UACC-62 melanoma,> 100 µM
same,GI50,UO-31 renal,> 100 µM
same,TGI,UO-31 renal,> 100 µM
